Reference: article PMC8067507, “Aryl Urea Based Scaffolds for Multitarget Drug Discovery in Anticancer Immunotherapies” (Pharmaceuticals, 2021)

What follows are compounds tested on A549 (pulmonary adenocarcinoma) (assay: Cell proliferation assay (MTT)). Settings: Homo sapiens, A549, 48 h, 2 days incubation, average ± SD of three experiments.
Assay type: cell-based
Source text: (§1) The ability of Ureas 13–33 to inhibit cell proliferation was established by means of their IC50 values towards the human tumor cell lines HT-29 (colon adenocarcinoma), MCF-7 (breast adenocarcinoma), HeLa (epithelioid cervix carcinoma) and A549 (pulmonary adenocarcinoma), as well as towards the endothelial cell line HMEC-1 (human microvascular endothelial cells) and the non-tumor cell line HEK-293 (human embryonic kidney cells).
(§2) HT-29, MCF-7, HeLa, A549 and HEK-293 cell lines were maintained in Dulbecco’s modified Eagle’s medium (DMEM) containing glucose (1 g/L), glutamine (2 mM), penicillin (50 μg/mL), streptomycin (50 μg/mL), and amphotericin B (1.25 μg/mL), supplemented with 10% FBS. HMEC-1 cell line was maintained in Dulbecco’s modified Eagle’s medium (DMEM)/low glucose containing glutamine (2 mM), penicillin (50 μg/mL), streptomycin (50 μg/mL), and amphotericin B (1.25 μg/mL), supplemented with 10% FBS. For the development of tube formation assays in Matrigel, HMEC-1 cells were cultured in EGM-2MV Medium supplemented with EGM-2MV SingleQuots.
(§3) In 96-well plates, 3 × 10^3 (HeLa, A549, HMEC-1, HEK-293) or 5 × 10^3 (HT-29, MCF-7) cells per well were incubated with serial dilutions of the tested compounds in a total volume of 100 μL of their respective growth media. The 3-(4,5-dimethylthiazol-2-yl)-2,5-diphenyltetrazolium bromide (MTT; Sigma Chemical Co.) dye reduction assay in 96-well microplates was used. After 2 days of incubation (37 °C, 5% CO2 in a humid atmosphere), 10 μL of MTT (5 mg/mL in phosphate-buffered saline, PBS) was added to each well, and the plate was incubated for a further 3 h (37 °C). After that, the supernatant was discarded and replaced by 100 µL of DMSO to dissolve formazan crystals. The absorbance was then read at 540 nm by spectrophotometry. For all concentrations of compound, cell viability was expressed as the percentage of the ratio between the mean absorbance of treated cells and the mean absorbance of untreated cells. Three independent experiments were performed, and the IC50 values (i.e., concentration half inhibiting cell proliferation) were graphically determined using GraphPad Prism 4 software.
With `COc1ccc(/C=C/c2cccc(NC(=O)Nc3ccc(OC)cc3)c2)cc1` [Compound 26] the IC50 was 13 ± 3 µM. `CNC(=O)c1cc(Oc2ccc(NC(=O)Nc3ccc(Cl)c(C(F)(F)F)c3)cc2)ccn1` [Sorafenib, sorafenib, reference compound] showed an IC50 of 27 ± 2 µM. With `COc1ccc(/C=C\c2cccc(NC(=O)Nc3ccccc3OC)c2)cc1` [Compound 17] the IC50 was 18 ± 1 µM.

What follows are compounds tested on HEK-293 (human embryonic kidney cells) (assay: Cell proliferation assay (MTT)). Settings: HEK293, 48 h, 2 days incubation, average ± SD of three experiments.
Assay type: cell-based
Source text: as §1, §2, §3
`COc1ccc(/C=C/c2cccc(NC(=O)Nc3ccc(OC)cc3)c2)cc1` [Compound 26] gave an IC50 of 1.4 ± 0.6 µM. `CNC(=O)c1cc(Oc2ccc(NC(=O)Nc3ccc(Cl)c(C(F)(F)F)c3)cc2)ccn1` [Sorafenib, sorafenib, reference compound] was tested, and the IC50 was 5 ± 0.7 µM. With `COc1ccc(/C=C\c2cccc(NC(=O)Nc3ccccc3OC)c2)cc1` [Compound 17] the IC50 was 27 ± 5 µM.

What follows are compounds tested on HMEC-1 (human microvascular endothelial cells) (assay: Cell proliferation assay (MTT)). Settings: HMEC-1, 48 h, 2 days incubation, average ± SD of three experiments.
Assay type: cell-based
Source text: as §1, §2, §3
Compound `COc1ccc(/C=C/c2cccc(NC(=O)Nc3ccc(OC)cc3)c2)cc1` [Compound 26] has an IC50 of 1.9 ± 0.6 µM. In the case of `CNC(=O)c1cc(Oc2ccc(NC(=O)Nc3ccc(Cl)c(C(F)(F)F)c3)cc2)ccn1` [Sorafenib, sorafenib, reference compound], the IC50 is reported as 34 ± 3 µM. With `COc1ccc(/C=C\c2cccc(NC(=O)Nc3ccccc3OC)c2)cc1` [Compound 17] the IC50 was 10 ± 1 µM.

These compounds were tested on HT-29 (colon adenocarcinoma) (assay: Cell proliferation assay (MTT)). Settings: Homo sapiens, HT-29, 48 h, 2 days incubation, average ± SD of three experiments.
Assay type: cell-based
Source text: as §1, §2, §3
For `COc1ccc(/C=C/c2cccc(NC(=O)Nc3ccc(OC)cc3)c2)cc1` [Compound 26], the IC50 was 0.2 ± 0.2 µM. Compound `CNC(=O)c1cc(Oc2ccc(NC(=O)Nc3ccc(Cl)c(C(F)(F)F)c3)cc2)ccn1` [Sorafenib, sorafenib, reference compound] has an IC50 of 17 ± 4 µM. With `COc1ccc(/C=C\c2cccc(NC(=O)Nc3ccccc3OC)c2)cc1` [Compound 17] the IC50 was 15 ± 1 µM.

What follows are compounds tested on HeLa (epithelioid cervix carcinoma) (assay: Cell proliferation assay (MTT)). Settings: Homo sapiens, 48 h, 2 days incubation, average ± SD of three experiments.
Assay type: cell-based
Source text: as §1, §2, §3
With `COc1ccc(/C=C/c2cccc(NC(=O)Nc3ccc(OC)cc3)c2)cc1` [Compound 26] the IC50 was 4 ± 1 µM. Work on `CNC(=O)c1cc(Oc2ccc(NC(=O)Nc3ccc(Cl)c(C(F)(F)F)c3)cc2)ccn1` [Sorafenib, sorafenib, reference compound] yielded an IC50 of 6.1 ± 0.4 µM. `COc1ccc(/C=C\c2cccc(NC(=O)Nc3ccccc3OC)c2)cc1` [Compound 17] showed an IC50 of 15 ± 2 µM.

These compounds were tested on MCF-7 (breast adenocarcinoma) (assay: Cell proliferation assay (MTT)). Settings: Homo sapiens, MCF7, 48 h, 2 days incubation, average ± SD of three experiments.
Assay type: cell-based
Source text: as §1, §2, §3
In the case of `COc1ccc(/C=C/c2cccc(NC(=O)Nc3ccc(OC)cc3)c2)cc1` [Compound 26], the IC50 is reported as 0.7 ± 0.3 µM. `CNC(=O)c1cc(Oc2ccc(NC(=O)Nc3ccc(Cl)c(C(F)(F)F)c3)cc2)ccn1` [Sorafenib, sorafenib, reference compound] gave an IC50 of 14 ± 4 µM. With `COc1ccc(/C=C\c2cccc(NC(=O)Nc3ccccc3OC)c2)cc1` [Compound 17] the IC50 was 15 ± 1 µM.

The compounds below were run on HMEC-1 cells (assay: Tube formation inhibition assay). Settings: HMEC-1 on Matrigel, 20 h incubation; average of three experiments.
Assay type: cell-based, human
Protocol: as §2
Wells of an IBIDI μ-slide angiogenesis (IBIDI, Martinsried, Germany) were coated with 12 μL of Matrigel® (10 mg/mL, BD Biosciences) at 4 °C. After gelatinization at 37 °C for 30 min, HMEC-1 cells were seeded at 2 × 10^4 cells/well in 35 μL of culture medium on top of the Matrigel and were incubated 30 min at 37 °C while are attached. Then, compounds were added dissolved in 35 μL of culture medium and after 20 h of incubation at 37 °C, tube destruction was evaluated.
For `CCN(CC)CCNC(=O)c1c(C)[nH]c(/C=C2\C(=O)Nc3ccc(F)cc32)c1C` [Sunitinib, sunitinib, reference compound], the “Minimum Active Conc. (inhibition of tube formation)” value was 3 µM. For `CNC(=O)c1cc(Oc2ccc(NC(=O)Nc3ccc(Cl)c(C(F)(F)F)c3)cc2)ccn1` [Sorafenib, sorafenib, reference compound], the “Minimum Active Conc. (inhibition of tube formation)” value was 10 µM.

These compounds were tested against T1, PD-L1 (Homo sapiens, UniProt Q9NZQ7) (assay: PD-L1 quantification by flow cytometry in HT-29). Settings: HT-29, 10 μM, 24 h, referred to control (DMSO).
T1 sequence (Q9NZQ7 19-290): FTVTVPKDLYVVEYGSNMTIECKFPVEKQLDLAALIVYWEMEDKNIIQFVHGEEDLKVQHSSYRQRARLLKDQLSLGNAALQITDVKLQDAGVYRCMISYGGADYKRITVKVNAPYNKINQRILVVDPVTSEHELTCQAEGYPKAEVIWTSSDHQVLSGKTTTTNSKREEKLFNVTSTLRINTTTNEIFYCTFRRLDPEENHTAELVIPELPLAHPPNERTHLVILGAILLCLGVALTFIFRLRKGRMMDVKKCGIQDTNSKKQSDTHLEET
Assay type: cell-based
Protocol: (§4) We evaluated the effect of the selected compounds on PD-L1 and on c-Myc proteins by flow cytometry after 24 h treatment at 10 μM concentration of compounds. Both, PD-L1 and c-Myc were relatively determined using DMSO treated cells as a negative control and BMS-8 as a positive one.
(§5) For the detection of total PD-L1 and c-Myc, cancer cells were seeded (3 × 10^5 cells/well) in 6-well plates and were incubated with the corresponding compounds for 24 h. Then they were collected, fixed, treated with 0.5% Triton^TM X-100 and stained with Alexa Fluor® 647 Rabbit monoclonal Anti-PD-L1 (ab215251) and FITC Rabbit monoclonal anti-c-Myc (ab223913).
(§6) We also checked results performing ELISA tests. For ELISA tests, lysates were collected, protein quantification was carried out by Bradford test and, then, PD-L1 and c-Myc were quantified using Human PD-L1 ELISA Kit 28-8 (ab214565) and c-Myc (Total) Human ELISA Kit (KHO2041), respectively, according to the manufacturer’s instructions.
With `COc1ccc(/C=C/c2cccc(NC(=O)Nc3ccc(OC)cc3)c2)cc1` [Compound 26] the “PD-L1 (%) relative expression” value was 33 ± 10%. For `COc1ccc(/C=C\c2cccc(NC(=O)Nc3ccccc3OC)c2)cc1` [Compound 17], the “PD-L1 (%) relative expression” value was 60 ± 12%.

Each compound was assayed on c-Myc (assay: c-Myc quantification by flow cytometry in HT-29). Settings: HT-29, 10 μM, 24 h, referred to control (DMSO).
Assay type: cell-based, human
Protocol: as §4, §5, §6
In the case of `COc1ccc(/C=C/c2cccc(NC(=O)Nc3ccc(OC)cc3)c2)cc1` [Compound 26], the “c-Myc (%) relative expression” value is reported as 57 ± 9%. For `COc1ccc(/C=C\c2cccc(NC(=O)Nc3ccccc3OC)c2)cc1` [Compound 17], the “c-Myc (%) relative expression” value was 58 ± 13%.

What follows are compounds tested on c-Myc (assay: c-Myc quantification by flow cytometry in A-549). Settings: A-549, 10 μM, 24 h, referred to control (DMSO).
Assay type: cell-based, human
Protocol: as §4, §5, §6
In the case of `COc1ccc(/C=C/c2cccc(NC(=O)Nc3ccc(OC)cc3)c2)cc1` [Compound 26], the “c-Myc (%) relative expression” value is reported as 63 ± 7%. With `COc1ccc(/C=C\c2cccc(NC(=O)Nc3ccccc3OC)c2)cc1` [Compound 17] the “c-Myc (%) relative expression” value was 45± 9%.

The compounds below were run on HT-29 cells (assay: Cell proliferation evaluation in co-cultures: HT-29 with Jurkat T cells). Settings: IFN-γ stimulated HT-29 co-cultured with Jurkat T cells, 10 µM, 24 h; five experiments.
Assay type: cell-based, human
Protocol: We also studied the effect of Compounds 16, 23, 26 and 33 on tumor cell proliferation in the presence of PD-1 expressing Jurkat T-cells. For this assay, first interferon γ stimulated HT-29 cells were treated for 24 h with the selected compounds at 10 µM in presence of Jurkat T cells. Then, living cells were counted using trypan blue and a Neubauer chamber and by flow cytometry.
In 12-well plates, 10^5 HT-29 cells per well were seeded and incubated for 24 h with cell culture medium supplemented with IFN-γ (10 ng/mL; human, Invitrogen®) then medium was change by one containing 4 × 10^5 Jurkat T cells per well and 10 μM of the corresponding compound or DMSO for the control. After 24 h of incubation, supernatants were collected to determine Jurkat T cell living cells and, on the other hand, HT-29 cells were collected with trypsin. Both types of suspension cells were counted with the Neubauer chamber and trypan blue and also by flow cytometry.
With `COc1ccc(/C=C/c2cccc(NC(=O)Nc3ccc(OC)cc3)c2)cc1` [Compound 26] the “Living HT-29 cell proliferation (%)” value was 62%.

Each compound was assayed against T1, PD-L1 (assay: PD-L1 quantification by flow cytometry in A-549). Settings: A-549, 10 μM, 24 h, referred to control (DMSO).
Assay type: cell-based
Parameters: endogenous in cells; host or cells: A-549 cancer cells
Protocol: as §4, §5, §6
For `COc1ccc(/C=C/c2cccc(NC(=O)Nc3ccc(OC)cc3)c2)cc1` [Compound 26], the “PD-L1 (%) relative expression” value was 50 ± 3%. With `COc1ccc(/C=C\c2cccc(NC(=O)Nc3ccccc3OC)c2)cc1` [Compound 17] the “PD-L1 (%) relative expression” value was 79 ± 9%.

These compounds were tested against T2, VEGFR-2 (Homo sapiens, UniProt P35968) (assay: VEGFR-2 quantification by flow cytometry in HMEC-1). Settings: 10 µM, 24 h, relative to DMSO control.
T2 sequence (P35968 20-1356): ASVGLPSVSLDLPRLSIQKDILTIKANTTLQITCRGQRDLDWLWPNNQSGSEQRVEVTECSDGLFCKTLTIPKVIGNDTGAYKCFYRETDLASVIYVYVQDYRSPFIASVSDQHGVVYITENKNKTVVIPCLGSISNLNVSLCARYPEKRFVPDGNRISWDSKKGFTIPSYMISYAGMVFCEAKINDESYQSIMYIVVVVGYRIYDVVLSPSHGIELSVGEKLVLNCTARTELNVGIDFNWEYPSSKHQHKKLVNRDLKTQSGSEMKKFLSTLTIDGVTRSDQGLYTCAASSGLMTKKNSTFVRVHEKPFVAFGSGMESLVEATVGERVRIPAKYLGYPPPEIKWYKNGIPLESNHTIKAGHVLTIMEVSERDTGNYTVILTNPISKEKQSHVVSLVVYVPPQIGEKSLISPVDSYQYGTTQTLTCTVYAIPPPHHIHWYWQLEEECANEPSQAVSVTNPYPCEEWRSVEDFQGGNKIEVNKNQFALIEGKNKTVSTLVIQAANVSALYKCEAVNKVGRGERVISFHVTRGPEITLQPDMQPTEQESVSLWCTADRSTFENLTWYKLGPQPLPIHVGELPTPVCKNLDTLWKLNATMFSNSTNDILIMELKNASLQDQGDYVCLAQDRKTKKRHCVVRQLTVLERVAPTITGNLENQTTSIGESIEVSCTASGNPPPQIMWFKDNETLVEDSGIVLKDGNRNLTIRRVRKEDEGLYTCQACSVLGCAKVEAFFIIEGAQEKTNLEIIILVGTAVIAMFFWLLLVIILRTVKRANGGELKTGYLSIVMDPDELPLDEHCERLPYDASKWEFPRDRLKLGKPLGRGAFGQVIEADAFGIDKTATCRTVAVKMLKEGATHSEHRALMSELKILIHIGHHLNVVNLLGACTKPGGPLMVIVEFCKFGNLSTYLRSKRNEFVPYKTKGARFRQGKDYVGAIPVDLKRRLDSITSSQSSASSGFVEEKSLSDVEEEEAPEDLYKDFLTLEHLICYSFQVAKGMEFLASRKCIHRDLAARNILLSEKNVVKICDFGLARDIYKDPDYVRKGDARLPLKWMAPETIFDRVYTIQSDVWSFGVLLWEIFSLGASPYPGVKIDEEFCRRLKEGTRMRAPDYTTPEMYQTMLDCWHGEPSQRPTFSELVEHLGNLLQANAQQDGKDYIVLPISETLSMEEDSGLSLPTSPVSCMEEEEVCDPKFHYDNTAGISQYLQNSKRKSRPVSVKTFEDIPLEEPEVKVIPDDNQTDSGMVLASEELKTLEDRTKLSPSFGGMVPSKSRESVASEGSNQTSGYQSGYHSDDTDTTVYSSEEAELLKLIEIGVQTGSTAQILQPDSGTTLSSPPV
Assay type: cell-based
Parameters: Both membrane and total VEGFR-2 were relatively determined using dimethyl sulfoxide (DMSO) treated cells as a negative control; endogenous in cells; host or cells: HMEC-1 (human microvascular endothelial cells)
Protocol: (§7) We performed the study on both a HT-29 cancer cell line and a human microvessel endothelial cell line (HMEC-1). […] The effect of these selected derivatives on VEGFR-2, on HT-29 tumor cell line and on human microvessel endothelial cells (HMEC) was determined by flow cytometry technique. […] For these assays, cells were incubated for 24 h in the presence of the corresponding compounds at 10 µM concentration.
With `COc1ccc(/C=C/c2cccc(NC(=O)Nc3ccc(OC)cc3)c2)cc1` [Compound 26] the “Membrane VEGFR-2 (%)” value was 65 ± 9% and the “Total VEGFR-2 (%)” value was 83 ± 7%. With `COc1ccc(/C=C\c2cccc(NC(=O)Nc3ccccc3OC)c2)cc1` [Compound 17] the “Membrane VEGFR-2 (%)” value was 99 ± 7% and the “Total VEGFR-2 (%)” value was 97 ± 9%.

The compounds below were run against T2, VEGFR-2 (assay: VEGFR-2 quantification by flow cytometry in HT-29). Settings: HT-29, 10 µM, 24 h, relative to DMSO control.
Assay type: cell-based
Parameters: Both membrane and total VEGFR-2 were relatively determined using dimethyl sulfoxide (DMSO) treated cells as a negative control; endogenous in cells; host or cells: HT-29 (colon adenocarcinoma) and HMEC-1 (human microvascular endothelial cells)
Protocol: as §7
For `COc1ccc(/C=C/c2cccc(NC(=O)Nc3ccc(OC)cc3)c2)cc1` [Compound 26], the “Membrane VEGFR-2 (%)” value was 68 ± 9% and the “Total VEGFR-2 (%)” value was 95 ± 9%. In the case of `COc1ccc(/C=C\c2cccc(NC(=O)Nc3ccccc3OC)c2)cc1` [Compound 17], the “Membrane VEGFR-2 (%)” value is reported as 47 ± 16% and the “Total VEGFR-2 (%)” value is reported as 98 ± 12%.
